Columns and labels:
Experiment in all cases: cells
OVCAR-3 = assay type: functional, cell-based, Homo sapiens; details: Homo sapiens, OVCAR-3;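 further: growth inhibition of human OVCAR-3 cells, determined by a cell viability assay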
Description: SANGER: Inhibition of human OVCAR-3 cell growth in a cell viability assay.

SJSA-1 = assay type: functional, cell-based, Homo sapiens; details: Homo sapiens, SJSA-1;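 further: growth inhibition of human SJSA-1 cells, read out through a cell viability measurement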
Description: SANGER: Inhibition of human SJSA-1 cell growth in a cell viability assay.

BT-474 = assay type: functional, cell-based, Homo sapiens; details: Homo sapiens, BT-474
Description: SANGER: Inhibition of human BT-474 cell growth in a cell viability assay.

GB-1 = assay type: functional, cell-based, Homo sapiens; details: Homo sapiens, GB-1;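 further: growth of GB-1 cells judged by a viability assay, IC50 marks the concentration inhibiting growth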
Description: SANGER: Inhibition of human GB-1 cell growth in a cell viability assay.

YKG-1 = assay type: functional, cell-based, Homo sapiens; details: Homo sapiens, YKG-1;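 further: cell growth inhibition, read out with a viability assay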
Description: SANGER: Inhibition of human YKG-1 cell growth in a cell viability assay.

EW-16 = assay type: functional, cell-based, Homo sapiens; details: Homo sapiens, EW-16;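 further: growth inhibition of human EW-16 cells, read out as cell viability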
Description: SANGER: Inhibition of human EW-16 cell growth in a cell viability assay.

U2OS = assay type: functional, cell-based, Homo sapiens, U-2-OS; details: Homo sapiens, U2OS;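 further: growth inhibition of human U-2-OS cells, determined with a cell viability assay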
Description: SANGER: Inhibition of human U-2-OS cell growth in a cell viability assay.

LB771-HNC = assay type: functional, cell-based, Homo sapiens; details: Homo sapiens, LB771-HNC;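 further: growth inhibition of LB771-HNC human cells, read out with a cell viability assay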
Description: SANGER: Inhibition of human LB771-HNC cell growth in a cell viability assay.

CHP-212 = assay type: functional, cell-based, Homo sapiens; details: Homo sapiens, CHP-212
Description: SANGER: Inhibition of human CHP-212 cell growth in a cell viability assay.

SW948 = assay type: functional, cell-based, Homo sapiens; details: Homo sapiens, SW948;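 further: growth inhibition of SW948 cells, read out with a cell viability assay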
Description: SANGER: Inhibition of human SW948 cell growth in a cell viability assay.

OCI-AML2 = assay type: functional, cell-based; details: Homo sapiens;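 further: growth inhibition of OCI-AML2 cells, read out with a cell viability assay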
Description: SANGER: Inhibition of human OCI-AML2 cell growth in a cell viability assay.

MC116 = assay type: functional, cell-based; details: Homo sapiens;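 further: growth inhibition of MC116 cells, read out with a cell viability assay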
Description: SANGER: Inhibition of human MC116 cell growth in a cell viability assay.

MEL-HO = assay type: functional, cell-based, Homo sapiens; details: Homo sapiens, MEL-HO
Description: SANGER: Inhibition of human MEL-HO cell growth in a cell viability assay.

EFO-27 = assay type: functional, cell-based, Homo sapiens; details: Homo sapiens, EFO-27;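 further: growth inhibition of EFO-27 cells, read out with a cell viability assay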
Description: SANGER: Inhibition of human EFO-27 cell growth in a cell viability assay.

ETK-1 = assay type: functional, cell-based, Homo sapiens; details: Homo sapiens, ETK-1;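 further: growth inhibition of human ETK-1 cells, read out with a cell viability assay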
Description: SANGER: Inhibition of human ETK-1 cell growth in a cell viability assay.

Ramos-2G6-4C10 = assay type: functional, cell-based; details: Homo sapiens;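 further: growth inhibition of the cell line, measured by a cell viability read-out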
Description: SANGER: Inhibition of human Ramos-2G6-4C10 cell growth in a cell viability assay.

NCI-H1581 = assay type: functional, cell-based, Homo sapiens; details: Homo sapiens, NCI-H1581;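 further: cell growth inhibition read out by a viability assay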
Description: SANGER: Inhibition of human NCI-H1581 cell growth in a cell viability assay.

IGROV-1 = assay type: functional, cell-based, Homo sapiens; details: Homo sapiens, IGROV-1;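 further: reduction of IGROV-1 cell growth, read out with a viability assay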
Description: SANGER: Inhibition of human IGROV-1 cell growth in a cell viability assay.

DB = assay type: functional, cell-based; details: Homo sapiens
Description: SANGER: Inhibition of human DB cell growth in a cell viability assay.

KNS-81-FD = assay type: functional, cell-based, Homo sapiens; details: Homo sapiens, KNS-81-FD;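 further: growth inhibition of KNS-81-FD cells, read out with a cell viability assay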
Description: SANGER: Inhibition of human KNS-81-FD cell growth in a cell viability assay.

NB12 = assay type: functional, cell-based, Homo sapiens; details: Homo sapiens, NB12;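 further: growth inhibition of human NB12 cells, read out by a cell viability assay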
Description: SANGER: Inhibition of human NB12 cell growth in a cell viability assay.

MKN-1 = assay type: functional, cell-based, Homo sapiens; details: Homo sapiens, MKN-1;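 further: growth inhibition of human MKN1 cells, read out by a cell viability measurement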
Description: SANGER: Inhibition of human MKN1 cell growth in a cell viability assay.

RXF 393 = assay type: functional, cell-based; details: Homo sapiens;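 further: growth inhibition of human RXF 393 cells, read out with a cell viability assay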
Description: SANGER: Inhibition of human RXF393 cell growth in a cell viability assay.

NCI-H1838 = assay type: functional, cell-based, Homo sapiens; details: Homo sapiens, NCI-H1838;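 further: growth inhibition of NCI-H1838 cells, determined with a cell viability readout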
Description: SANGER: Inhibition of human NCI-H1838 cell growth in a cell viability assay.

KGN = assay type: functional, cell-based, Homo sapiens; details: Homo sapiens, KGN;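 further: growth inhibition of KGN cells, read out with a cell viability assay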
Description: SANGER: Inhibition of human KGN cell growth in a cell viability assay.

NCI-H1437 = assay type: functional, cell-based, Homo sapiens; details: Homo sapiens, NCI-H1437;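 further: growth inhibition of human NCI-H1437 cells, read out by a cell viability assay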
Description: SANGER: Inhibition of human NCI-H1437 cell growth in a cell viability assay.

no-10 = assay type: functional, cell-based, Homo sapiens; details: Homo sapiens;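 further: growth inhibition of no-10 cells, read out with a cell viability assay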
Description: SANGER: Inhibition of human no-10 cell growth in a cell viability assay.

LU-99A = assay type: functional, cell-based, Homo sapiens; details: Homo sapiens, LU-99A;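 further: growth inhibition of LU-99A cells, read out with a cell viability assay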
Description: SANGER: Inhibition of human LU-99A cell growth in a cell viability assay.

EFO-21 = assay type: functional, cell-based, Homo sapiens; details: Homo sapiens, EFO-21;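 further: growth inhibition of EFO-21 cells measured with a viability assay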
Description: SANGER: Inhibition of human EFO-21 cell growth in a cell viability assay.

BFTC-909 = assay type: functional, cell-based, Homo sapiens; details: Homo sapiens, BFTC-909
Description: SANGER: Inhibition of human BFTC-909 cell growth in a cell viability assay.

NCI-H226 = assay type: functional, cell-based, Homo sapiens; details: Homo sapiens, NCI-H226;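 further: cell viability read-out used to gauge growth inhibition of the cells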
Description: SANGER: Inhibition of human NCI-H226 cell growth in a cell viability assay.

KYSE-70 cell line = assay type: functional, cell-based, Homo sapiens; details: Homo sapiens, KYSE-70;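 further: cell viability assay read-out, with IC50 expressing suppression of KYSE-70 cell growth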
Description: SANGER: Inhibition of human KYSE-70 cell growth in a cell viability assay.

Calu-6 = assay type: functional, cell-based, Homo sapiens; details: Homo sapiens, Calu-6;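 further: growth of human Calu-6 cells, read out by a cell viability assay, IC50 marking inhibition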
Description: SANGER: Inhibition of human Calu-6 cell growth in a cell viability assay.

TGBC1TKB = assay type: functional, cell-based, Homo sapiens; details: Homo sapiens, TGBC1TKB;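 further: growth inhibition of TGBC1TKB cells, read out by a cell viability assay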
Description: SANGER: Inhibition of human TGBC1TKB cell growth in a cell viability assay.

NB14 = assay type: functional, cell-based; details: Homo sapiens;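 further: growth inhibition of NB14 cells measured with a cell viability assay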
Description: SANGER: Inhibition of human NB14 cell growth in a cell viability assay.

SNB-75 = assay type: functional, cell-based, Homo sapiens; details: Homo sapiens, SNB-75;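 further: cell viability assay measuring growth inhibition of human SNB-75 cells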
Description: SANGER: Inhibition of human SNB75 cell growth in a cell viability assay.

AN3-CA = assay type: functional, cell-based; details: Homo sapiens;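 further: growth inhibition of human AN3-CA cells measured by a cell viability assay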
Description: SANGER: Inhibition of human AN3-CA cell growth in a cell viability assay.

KYSE-510 = assay type: functional, cell-based, Homo sapiens; details: Homo sapiens, KYSE-510;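 further: cell viability readout used to measure how strongly growth of the cell line is suppressed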
Description: SANGER: Inhibition of human KYSE-510 cell growth in a cell viability assay.

OAW-42 = assay type: functional, cell-based, Homo sapiens; details: Homo sapiens, OAW-42;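 further: growth inhibition of OAW-42 cells, read out with a cell viability assay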
Description: SANGER: Inhibition of human OAW-42 cell growth in a cell viability assay.

MeWo = assay type: functional, cell-based, Homo sapiens; details: Homo sapiens, MeWo;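 further: growth inhibition of MeWo cells, determined by a cell viability readout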
Description: SANGER: Inhibition of human Mewo cell growth in a cell viability assay.

ACN = assay type: functional, cell-based, Homo sapiens; details: Homo sapiens, ACN;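 further: growth inhibition of the human ACN cell line, read out via cell viability testing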
Description: SANGER: Inhibition of human ACN cell growth in a cell viability assay.

MDA-MB-157 = assay type: functional, cell-based, Homo sapiens; details: Homo sapiens, MDA-MB-157
Description: SANGER: Inhibition of human MDA-MB-157 cell growth in a cell viability assay.

HCC1187 = assay type: functional, cell-based, Homo sapiens; details: Homo sapiens, HCC1187;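 further: growth inhibition of HCC1187 cells, read out with a cell viability assay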
Description: SANGER: Inhibition of human HCC1187 cell growth in a cell viability assay.

NCI-H1299 = assay type: functional, cell-based, Homo sapiens; details: Homo sapiens, NCI-H1299;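 further: growth inhibition of human NCI-H1299 cells, read out by a cell viability assay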
Description: SANGER: Inhibition of human NCI-H1299 cell growth in a cell viability assay.

SHP77 = assay type: functional, cell-based, Homo sapiens, SHP-77; details: Homo sapiens, SHP77;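 further: growth inhibition of human SHP-77 cells measured by a cell viability assay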
Description: SANGER: Inhibition of human SHP-77 cell growth in a cell viability assay.

HLE = assay type: functional, cell-based, Homo sapiens; details: Homo sapiens, HLE;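 further: growth inhibition of human HLE cells, read out by a cell viability assay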
Description: SANGER: Inhibition of human HLE cell growth in a cell viability assay.

SNU-387 = assay type: functional, cell-based, Homo sapiens; details: Homo sapiens, SNU-387
Description: SANGER: Inhibition of human SNU-387 cell growth in a cell viability assay.

C32 = assay type: functional, cell-based, Homo sapiens; details: Homo sapiens, C32;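 further: cell viability assay, with IC50 reflecting inhibition of C32 cell growth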
Description: SANGER: Inhibition of human C32 cell growth in a cell viability assay.

SNU-5 = assay type: functional, cell-based; details: Homo sapiens;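 further: cell viability readout used to measure growth inhibition in human NCI-SNU-5 cells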
Description: SANGER: Inhibition of human NCI-SNU-5 cell growth in a cell viability assay.

P30-OHK = assay type: functional, cell-based; details: Homo sapiens;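 further: growth inhibition of the P30-OHK cell line, read out with a cell viability assay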
Description: SANGER: Inhibition of human P30-OHK cell growth in a cell viability assay.

D-336MG = assay type: functional, cell-based, Homo sapiens; details: Homo sapiens, D-336MG
Description: SANGER: Inhibition of human D-336MG cell growth in a cell viability assay.

Compound: COc1cc(F)c(F)c(Nc2ccc(I)cc2F)c1NS(=O)(=O)C1(CC(O)CO)CC1 (stereo not given)
- IC50 (OVCAR-3): > 5000 nM
- IC50 (SJSA-1): 158 nM
- IC50 (BT-474): > 5000 nM
- IC50 (GB-1): 3600 nM
- IC50 (YKG-1): 938 nM
- IC50 (EW-16): > 5000 nM
- IC50 (U2OS): 2750 nM
- IC50 (LB771-HNC): > 5000 nM
- IC50 (CHP-212): 4.92 nM
- IC50 (SW948): > 5000 nM
- IC50 (OCI-AML2): > 5000 nM
- IC50 (MC116): > 5000 nM
- IC50 (MEL-HO): 39.4 nM
- IC50 (EFO-27): 962 nM
- IC50 (ETK-1): 4240 nM
- IC50 (Ramos-2G6-4C10): > 5000 nM
- IC50 (NCI-H1581): > 5000 nM
- IC50 (IGROV-1): 1780 nM
- IC50 (DB): > 5000 nM
- IC50 (KNS-81-FD): 2410 nM
- IC50 (NB12): > 5000 nM
- IC50 (MKN-1): > 5000 nM
- IC50 (RXF 393): 1450 nM
- IC50 (NCI-H1838): > 5000 nM
- IC50 (KGN): 2800 nM
- IC50 (NCI-H1437): 702 nM
- IC50 (no-10): > 5000 nM
- IC50 (LU-99A): 3960 nM
- IC50 (EFO-21): > 5000 nM
- IC50 (BFTC-909): > 5000 nM
- IC50 (NCI-H226): > 5000 nM
- IC50 (KYSE-70 cell line): > 5000 nM
- IC50 (Calu-6): > 5000 nM
- IC50 (TGBC1TKB): > 5000 nM
- IC50 (NB14): > 5000 nM
- IC50 (SNB-75): > 5000 nM
- IC50 (AN3-CA): > 5000 nM
- IC50 (KYSE-510): > 5000 nM
- IC50 (OAW-42): > 5000 nM
- IC50 (MeWo): 753 nM
- IC50 (ACN): 65.1 nM
- IC50 (MDA-MB-157): > 5000 nM
- IC50 (HCC1187): > 5000 nM
- IC50 (NCI-H1299): > 5000 nM
- IC50 (SHP77): > 5000 nM
- IC50 (HLE): > 5000 nM
- IC50 (SNU-387): 2420 nM
- IC50 (C32): 57.2 nM
- IC50 (SNU-5): 4510 nM
- IC50 (P30-OHK): > 5000 nM

Compound: CCC1=C[C@@H]2CN(C1)Cc1c([nH]c3ccccc13)[C@@](C(=O)OC)(c1cc3c(cc1OC)N(C)[C@H]1[C@@](O)(C(=O)OC)[C@H](OC(C)=O)[C@]4(CC)C=CCN5CC[C@]31[C@@H]54)C2 [VINORELBINE]
- IC50 (OVCAR-3): 6.21 nM
- IC50 (SJSA-1): 12.6 nM
- IC50 (BT-474): 28.5 nM
- IC50 (D-336MG): 63.9 nM
- IC50 (GB-1): > 64 nM
- IC50 (YKG-1): 3.73 nM
- IC50 (EW-16): 4.35 nM
- IC50 (U2OS): > 64 nM
- IC50 (LB771-HNC): 8.59 nM
- IC50 (CHP-212): 24.6 nM
- IC50 (SW948): 19.8 nM
- IC50 (OCI-AML2): 10.3 nM
- IC50 (MC116): 15.5 nM
- IC50 (MEL-HO): 3.29 nM
- IC50 (EFO-27): 5.79 nM
- IC50 (ETK-1): 6.92 nM
- IC50 (Ramos-2G6-4C10): 4.45 nM
- IC50 (NCI-H1581): 37.2 nM
- IC50 (IGROV-1): 2.2 nM
- IC50 (DB): 19.4 nM
- IC50 (KNS-81-FD): > 64 nM
- IC50 (NB12): 2.11 nM
- IC50 (MKN-1): 11.8 nM
- IC50 (RXF 393): 5.06 nM
- IC50 (NCI-H1838): > 64 nM
- IC50 (KGN): 7.05 nM
- IC50 (NCI-H1437): 7.11 nM
- IC50 (no-10): 45.6 nM
- IC50 (LU-99A): 6.24 nM
- IC50 (EFO-21): 21.7 nM
- IC50 (BFTC-909): 10.8 nM
- IC50 (NCI-H226): 25 nM
- IC50 (KYSE-70 cell line): 16.7 nM
- IC50 (Calu-6): 5.7 nM
- IC50 (TGBC1TKB): > 64 nM
- IC50 (SNB-75): 12.5 nM
- IC50 (AN3-CA): 6.27 nM
- IC50 (KYSE-510): 4.19 nM
- IC50 (OAW-42): 42.5 nM
- IC50 (MeWo): 15.2 nM
- IC50 (ACN): 1.33 nM
- IC50 (MDA-MB-157): > 64 nM
- IC50 (HCC1187): 13.9 nM
- IC50 (NCI-H1299): 13.6 nM
- IC50 (SHP77): > 64 nM
- IC50 (HLE): 10.2 nM
- IC50 (SNU-387): 10.2 nM
- IC50 (C32): > 64 nM
- IC50 (SNU-5): 45.8 nM
- IC50 (P30-OHK): 10.1 nM

Compound: COc1ccc(-c2ccc3c(N4CCOC[C@@H]4C)nc(N4CCOC[C@@H]4C)nc3n2)cc1CO [AZD-8055]
- IC50 (OVCAR-3): > 2000 nM
- IC50 (SJSA-1): 446 nM
- IC50 (BT-474): 1780 nM
- IC50 (GB-1): > 2000 nM
- IC50 (YKG-1): 1610 nM
- IC50 (EW-16): 1440 nM
- IC50 (U2OS): 760 nM
- IC50 (LB771-HNC): > 2000 nM
- IC50 (CHP-212): 437 nM
- IC50 (SW948): > 2000 nM
- IC50 (OCI-AML2): > 2000 nM
- IC50 (MC116): > 2000 nM
- IC50 (MEL-HO): 678 nM
- IC50 (EFO-27): 680 nM
- IC50 (ETK-1): 894 nM
- IC50 (Ramos-2G6-4C10): 170 nM
- IC50 (NCI-H1581): 190 nM
- IC50 (IGROV-1): 675 nM
- IC50 (DB): 500 nM
- IC50 (KNS-81-FD): 1890 nM
- IC50 (NB12): > 2000 nM
- IC50 (MKN-1): > 2000 nM
- IC50 (RXF 393): 929 nM
- IC50 (NCI-H1838): > 2000 nM
- IC50 (KGN): 610 nM
- IC50 (NCI-H1437): 606 nM
- IC50 (no-10): > 2000 nM
- IC50 (LU-99A): 776 nM
- IC50 (EFO-21): > 2000 nM
- IC50 (BFTC-909): 1290 nM
- IC50 (NCI-H226): > 2000 nM
- IC50 (KYSE-70 cell line): 1740 nM
- IC50 (Calu-6): > 2000 nM
- IC50 (TGBC1TKB): 1330 nM
- IC50 (NB14): 164 nM
- IC50 (SNB-75): 1750 nM
- IC50 (AN3-CA): 79.5 nM
- IC50 (KYSE-510): > 2000 nM
- IC50 (OAW-42): 592 nM
- IC50 (MeWo): 1090 nM
- IC50 (ACN): 943 nM
- IC50 (MDA-MB-157): 678 nM
- IC50 (HCC1187): > 2000 nM
- IC50 (NCI-H1299): 1500 nM
- IC50 (SHP77): > 2000 nM
- IC50 (HLE): 748 nM
- IC50 (SNU-387): 1520 nM
- IC50 (C32): 725 nM
- IC50 (SNU-5): > 2000 nM
- IC50 (P30-OHK): 327 nM

— ChEMBL document CHEMBL1201861, “Genomics of Drug Sensitity in Cancer screening data, Wellcome Trust Sanger Institute”
